The results in this text go back to patent US9255100B2 (BAYER INTELLECTUAL PROPERTY GMBH, priority 2010, dated 2016).

The IC50 is the concentration that gives 50% inhibition.

The assay concerns the target T1, N-terminally GST-tagged human full length recombinant Mps-1 kinase (Homo sapiens, UniProt P33981).
T1 construct: N-terminally GST-tagged human full length recombinant Mps-1 kinase; purchased Invitrogen, Karslruhe, Germany PV4071
T1 sequence (P33981 1-857): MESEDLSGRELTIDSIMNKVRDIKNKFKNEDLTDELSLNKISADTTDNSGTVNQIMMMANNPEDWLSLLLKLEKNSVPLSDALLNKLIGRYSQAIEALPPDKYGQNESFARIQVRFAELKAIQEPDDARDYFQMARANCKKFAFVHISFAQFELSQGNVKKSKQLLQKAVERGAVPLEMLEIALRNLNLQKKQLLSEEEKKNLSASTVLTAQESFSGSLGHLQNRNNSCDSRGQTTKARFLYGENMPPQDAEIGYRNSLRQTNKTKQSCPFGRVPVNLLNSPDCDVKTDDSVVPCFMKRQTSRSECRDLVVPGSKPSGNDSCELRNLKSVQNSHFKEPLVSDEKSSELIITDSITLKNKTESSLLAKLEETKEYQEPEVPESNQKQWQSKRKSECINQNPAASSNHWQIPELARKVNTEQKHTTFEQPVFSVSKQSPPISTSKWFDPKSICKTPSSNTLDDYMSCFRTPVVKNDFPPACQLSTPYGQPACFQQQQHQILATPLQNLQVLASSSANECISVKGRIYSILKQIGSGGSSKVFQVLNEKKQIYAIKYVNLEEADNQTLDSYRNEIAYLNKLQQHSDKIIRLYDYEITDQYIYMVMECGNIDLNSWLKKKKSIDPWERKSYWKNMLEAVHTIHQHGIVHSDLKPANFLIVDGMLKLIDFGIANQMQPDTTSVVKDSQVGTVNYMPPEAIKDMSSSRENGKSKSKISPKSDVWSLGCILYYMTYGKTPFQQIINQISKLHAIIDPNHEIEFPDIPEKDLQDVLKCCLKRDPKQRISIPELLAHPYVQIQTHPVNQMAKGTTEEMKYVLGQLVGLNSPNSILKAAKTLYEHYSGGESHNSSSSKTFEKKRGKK
Put plainly: Mps-1 kinase assay (TR-FRET). To be noted: Mps1 IC50 [nM], 10 μM ATP, 1 μM peptide substrate, 60 min at 22° C. The format is biochemical. The gist of the method:
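Next, Eu-labelled anti-phospho(Ser/Thr) antibody and SA-XLent bind for 1 h at 22° C. Finally, energy transfer quantifies phosphorylated product.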
On the technique in general: In TR-FRET formats the signal depends on donor and acceptor labels being close together.
`CC(C)(O)CNc1cc(C2=CCCCC2)nn2c(-c3ccc(C(=S)NC4CC4)cc3)cnc12` [Example 43, 4-{6-(Cyclohex-1-en-1-yl)-8-[(2-hydroxy-2-methylpropyl)amino]imidazo[1,2-b]pyridazin-3-yl}-N-cyclopropylbenzenecarbothioamide]: the IC50 was 21.1 nM.
Under `Cc1cc(-c2cnc3c(NCCC(F)(F)F)cc(Oc4cccc(F)c4F)nn23)ccc1C(=O)NC1CC1` [Example 258, N-cyclopropyl-4-{6-(2,3-difluorophenoxy)-8-[(3,3,3-trifluoropropyl)amino]imidazo[1,2-b]pyridazin-3-yl}-2-methylbenzamide] stands 0.2 nM; under `Cc1cc(-c2cnc3c(NCCC(C)(C)O)cc(Oc4cccc(F)c4)nn23)ccc1C(=O)NC1CC1` [Example 325, N-cyclopropyl-4-{6-(3-fluorophenoxy)-8-[(3-hydroxy-3-methylbutyl)amino]imidazo[1,2-b]pyridazin-3-yl}-2-methyl-benzamide], 0.1 nM; under `COc1cccc(Nc2cc(NCC(C)(C)O)c3ncc(-c4ccc(C(=O)NC5CC5)c(C)c4)n3n2)c1C` [Example 398, N-cyclopropyl-4-{8-[(2-hydroxy-2-methylpropyl)amino]-6-[(3-methoxy-2-methylphenyl)amino]imidazo[1,2-b]pyridazin-3-yl}-2-methylbenzamide], 0.4 nM.
Under `COc1cc(C(=O)NC2CC2)ccc1-c1cnc2c(NCC(C)(C)O)cc(-c3ccc(F)cc3)nn12` [Example 49, N-cyclopropyl-4-{6-(4-fluorophenyl)-8-[(2-hydroxy-2-methylpropyl)amino]imidazo[1,2-b]pyridazin-3-yl}-3-methoxybenzamide] stands 11.9 nM; under `Cc1cc(-c2cnc3c(NCCC(F)(F)F)cc(Oc4cccc(Cl)c4)nn23)ccc1C(=O)NC1CC1` [Example 266, 4-{6-(3-chlorophenoxy)-8-[(3,3,3-trifluoropropyl)amino]imidazo[1,2-b]pyridazin-3-yl}-N-cyclopropyl-2-methylbenzamide], 0.3 nM.
`C/C=C/c1cc(NCCC(F)(F)F)c2ncc(-c3ccc(-c4cnc(C5CC5)[nH]4)cc3)n2n1` [Example 16, 3-[4-(2-Cyclopropyl-1H-imidazol-5-yl)phenyl]-6-[(1E)-prop-1-en-1-yl]-N-(3,3,3-trifluoropropyl)imidazo[1,2-b]pyridazin-8-amine]: the IC50 amounted to 27.3 nM.
The result for `CSc1cc(NCC(O)C(F)(F)F)c2ncc(-c3ccc(C(=O)NC4CC4)c(C)c3)n2n1` (racemic) [Example 206, (RS)N-cyclopropyl-2-methyl-4-{6-(methylsulfanyl)-8-[(3,3,3-trifluoro-2-hydroxypropyl)amino]imidazo[1,2-b]pyridazin-3-yl}benzamide] reads 6.2 nM.
The result for `Cc1cc(-c2cnc3c(NCC(C)(C)O)cc(Nc4cccc(F)c4F)nn23)ccc1C(=O)NC1CC1` [Example 352, N-cyclopropyl-4-{6-[(2,3-difluorophenyl)amino]-8-[(2-hydroxy-2-methylpropyl)amino]imidazo[1,2-b]pyridazin-3-yl}-2-methylbenzamide] reads 0.2 nM; that for `CCNC(=O)c1ccc(-c2cnc3c(NCC4CCOCC4)cc(Oc4ccccc4C)nn23)cc1C` [Example 596, N-ethyl-2-methyl-4-{6-(2-methylphenoxy)-8-[(tetrahydro-2H-pyran-4-ylmethyl)a-mino]imidazo[1,2-b]pyridazin-3-yl}benzamide], 1.1 nM; that for `CC(C)CNc1cc(-c2ccc(CO)cc2)nn2c(-c3ccc(C(=O)NC4CC4)cc3)cnc12` [Example 133, N-cyclopropyl-4-{6-[4-(hydroxymethyl)phenyl]-8-[(2-methylpropyl)amino]imidazo[1,2-b]pyridazin-3-yl}benzamide], less than 1 nM.
Under `Cc1cc(-c2cnc3c(NCC(C)(C)O)cc(-c4ccnn4C)nn23)ccc1C(=O)NC1CC1` [Example 21, N-cyclopropyl-4-{8-[(2-hydroxy-2-methylpropyl)amino]-6-(1-methyl-1H-pyrazol-5-yl)imidazo[1,2-b]pyridazin-3-yl}-2-methylbenzamide] stands 3.7 nM.
